Results: patent publication US6495524B1, “Benzo[b]pyran derivatives useful as external agents for the skin” (Pola Chemical Industries Inc., priority 1998, dated 2002)

What was measured:
[1] = tested on: mouse melanoma-derived cells B-16; experiment: Inhibitory activity against melanine synthesis; format: cell-based; conditions: for Inhibition Ratio (melanine synthesis) / Amount of Melanine: 4 days; for Amount of Melanine: mean ± SD of five flasks; for inhibitory activity against the melanine synthesis by melanocytes (in words): remarkable in concentrations of 0.0005 w/v% or more
Experimental: 3×10^4 cells of mouse melanoma-derived cells B-16 were inoculated in a plastic incubation flask (75 cm^3) and incubated in Eagle MEM medium containing 10% fetal bovine serum under the conditions of 5% CO2 and 37° C. Two days after the start of the incubation, the inulavosin obtained in Production Example 1 above, the acetylinulavosin obtained in Example 1, or the glucosylinulavosin obtained in Example 2 was added to the incubation flask so that its concentration in the medium became 5×10^−5 to 1×10^−3 (W/V%) as shown in Tables 1 to 3 below, and the incubation was continued for additional 4 days. After completion of the incubation, the medium was removed from the incubation flask and the flask was washed with equilibrium phosphate buffer solution (hereinafter referred as “PBS”). Thereafter, the cells adhered on the incubation flask were stripped off with a solution containing trypsin and EDTA and then the obtained mixture was centrifuged to collect the cells.
After washing the collected cells with PBS, 1N sodium hydroxide was added to the precipitate, and the mixture was heat-dissolved. After cooling, chloroform was added thereto and the mixture was stirred and centrifuged again. The resultant supernatant was measured for absorbance at 400 nm and the amount of melanine was obtained by a calibration curve prepared in advance using synthetic melanine. The amount of melanine was obtained as weight (μg) per 10^6 cells. In the experiments, five flasks were used for each concentration of the test samples.
Tables 1 to 3 show the results obtained as average values of five flasks together with standard deviations. Tables 1 to 3 show the results for inulavosin, acetylinulavosin, and glucosylinulavosin, respectively.
In addition, as a control, the amount of melanine was determined by conducting the same experiments as described above except that the compound represented by formula (I) was not added. From the amount of melanine in the absence of samples and the amount of melanine in the presence of a sample, there was obtained melanine synthesis inhibition ratio (R(%)) by the following equation. The amount of melanine in the equation was an average value obtained from five flasks.
R: Melanine synthesis inhibition ratio
A: Amount of melanine in the absence of samples
B: Amount of melanine in the presence of a sample

[2] = tested on: Staphylococcus aureus; conditions: Heterocycles, Vol. 41, No. 9, 1923-1926 (1995); cited from earlier work
[3] = tested on: fish; conditions: Heterocycles, Vol. 41, No. 9, 1923-1926 (1995); cited from earlier work
[4] = tested on: Pseudomonas aeruginosa; conditions: Heterocycles, Vol. 41, No. 9, 1923-1926 (1995); cited from earlier work

| Compound | Inhibition Ratio (melanine synthesis) ([1]; 1 × 10^−3 W/V % in medium) [%] | Amount of Melanine ([1]; 1 × 10^−3 W/V % in medium) [μg/10^6 cells] | Inhibition Ratio (melanine synthesis) ([1]; 1 × 10^−4 W/V % in medium) [%] | Amount of Melanine ([1]; 1 × 10^−4 W/V % in medium) [μg/10^6 cells] | Inhibition Ratio (melanine synthesis) ([1]; 5 × 10^−4 W/V % in medium) [%] | Amount of Melanine ([1]; 5 × 10^−4 W/V % in medium) [μg/10^6 cells] | Inhibition Ratio (melanine synthesis) ([1]; 5 × 10^−5 W/V % in medium) [%] | Amount of Melanine ([1]; 5 × 10^−5 W/V % in medium) [μg/10^6 cells] | inhibitory activity against the melanine synthesis by melanocytes (in words) [1] | antibacterial activity [2] | fish toxin activity [3] | antibacterial activity [4] |
| --- | --- | --- | --- | --- | --- | --- | --- | --- | --- | --- | --- | --- |
| CC(=O)Oc1cc(C)ccc1C1(C)CC(C)(C)c2ccc(C)cc2O1 (stereo not drawn) [Acetylinulavosin, 2′-acetoxy-2,4,4,7,4′-pentamethylflavan] | 87.9 | 0.39 ± 0.18 | 25.1 | 2.42 ± 0.26 | 62.2 | 1.22 ± 0.17 | 9.3 | 2.93 ± 0.35 | have inhibitory activity against the melanine synthesis by melanocytes |  |  |  |
| Cc1ccc2c(c1)OC(C)(c1ccc(C)cc1OC1O[C@H](CO)[C@@H](O)[C@H](O)[C@H]1O)CC2(C)C (stereo partly drawn) [Glucosylinulavosin, 2′-O-glucosyl-2,4,4,7,4′-pentamethylflavan] | 80.8 | 0.62 ± 0.15 | 22.0 | 2.52 ± 0.23 | 58.2 | 1.35 ± 0.17 | 6.5 | 3.02 ± 0.33 | have inhibitory activity against the melanine synthesis by melanocytes |  |  |  |
| Cc1ccc(C2(C)CC(C)(C)c3ccc(C)cc3O2)c(O)c1 (stereo not drawn) [Inulavosin, 2′-hydroxy-2,4,4,7,4′-pentamethylflavan] | 91.3 | 0.28 ± 0.17 | 31.0 | 2.23 ± 0.24 | 73.1 | 0.87 ± 0.21 | 15.2 | 2.74 ± 0.32 | have inhibitory activity against the melanine synthesis by melanocytes | antibacterial activity | fish toxin activity | antibacterial activity |
